According to article PMC12305494, “Discovery of PXR Antagonist MI891 and PXR Degrader MI1013 and Their Roles in Hepatic Gene Regulation” (Journal of Medicinal Chemistry, 2025):
Numbering of substitutions follows the chain as printed.

Experiments:
wild-type PXR LBD = target: T1, wild-type PXR LBD (Homo sapiens, UniProt O75469); assay: Mammalian two-hybrid assay, wt-PXR LBD with SRC-1-VP16 in HepG2; format: cell-based; settings: MI891 at 10 μM
T1 construct: HepG2 cells were cotransfected with a GAL4-hPXR LBD construct and pSCR1-VP16 construct; expressed in transfected cells; host or cells: HepG2
T1 sequence (O75469 146-433 limits assumed): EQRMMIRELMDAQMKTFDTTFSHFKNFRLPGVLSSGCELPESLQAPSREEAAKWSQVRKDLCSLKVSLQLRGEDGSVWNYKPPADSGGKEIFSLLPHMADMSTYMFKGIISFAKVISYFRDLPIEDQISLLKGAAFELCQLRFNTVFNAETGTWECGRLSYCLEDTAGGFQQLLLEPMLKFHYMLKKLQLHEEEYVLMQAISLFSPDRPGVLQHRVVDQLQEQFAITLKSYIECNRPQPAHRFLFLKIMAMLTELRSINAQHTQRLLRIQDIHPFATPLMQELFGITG
From the text: (§1) Additionally, the GAL4-PXR-LBD triple mutants (S247W/C284W/S208W) construct and wild-type GAL4-wtPXR vector were used for PXR LBD mutant functional two-hybrid assay as we described before. In the mammalian two-hybrid assay, HepG2 cells were cotransfected with a GAL4-hPXR LBD construct and pSCR1-VP16 construct. Renilla luciferase vector was used for the normalization of firefly luciferase activity to Renilla luciferase activity.

COS-1 cells = assay: CellTiter-Glo cytotoxicity assay, COS-1; format: cell-based, monkey; settings: 24 h
Experimental: (§2) For the cytotoxicity assays involving HepG2, COS-1, and HK-2 cell lines, serial dilutions of MI891 or MI1013 were added to white 96-well tissue culture-treated plates containing these cell lines. After incubating the plates for 24 h at 37 °C, cytotoxicity was assessed using the CellTiter-Glo luminescent cell viability assay (Promega). The luminescence signal was measured with a Synergy2 plate reader (BioTek, Winooski, Vermont, USA) and presented as a relative change compared to the vehicle (DMSO, 0.1%) control, which was set at 100%.

HK-2 cells = assay: CellTiter-Glo cytotoxicity assay, HK-2; format: cell-based, human; settings: 24 h
Experimental: as §2

HepaRG cells = assay: RT-qPCR gene expression in differentiated HepaRG cells; format: cell-based, human; settings: 48 h
Experimental: HepaRG cells (Sigma-Aldrich/Merck) were cultivated and differentiated on 12-well plates. Seeded at 26,600 cells/cm^2, they were maintained in William’s medium with supplements. After 14 days, differentiation into hepatocyte-like cells was induced using 1.5% DMSO for another 14 days.
RT-qPCR was utilized to investigate gene expression in HepaRG and PHH. Total RNA was extracted from these cells using the phenol–chloroform method. The concentration of the isolated RNA was then measured using a Nanodrop 1000 spectro-photometer (Thermo Fisher Scientific).
Following RNA isolation, reverse transcription was performed to convert RNA into complementary DNA (cDNA). This step was carried out using the High-capacity cDNA reverse transcription kit (Cat. No. 4374966, ThermoFisher Scientific). The resulting cDNA served as the template for subsequent qPCR reactions.
The qPCR reactions were conducted on the QuantStudio 6 Flex Real-Time PCR System (ThermoFisher Scientific, Waltham, Mas-sachusetts). For these reactions, TaqMan Universal master mix II (Cat. No. 4440047, ThermoFisher Scientific) and TaqMan assays (FAM) utilized in this study are detailed in the Supporting Information. To quantify gene expression, the cycle threshold (Ct) values of the target genes were normalized to the Ct values of reference genes HPRT1 or GAPDH (HepaRG) or TBP (PHH). The normalized values were then expressed as fold changes (2−ΔΔCt) relative to the DMSO control at the specified time points, with the control set as 1.

HepG2 cells = assay: CellTiter-Glo cytotoxicity assay, HepG2; format: cell-based, human; settings: 24 h
Experimental: as §2

[1] = target: T2, triple mutant (S208W/S247W/C284W) PXR LBD (Homo sapiens, UniProt O75469, C284W/S208W/S247W); assay: Mammalian two-hybrid assay, obstructed triple mutant PXR LBD with SRC-1-VP16 in HepG2; format: cell-based
T2 construct: the GAL4-PXR-LBD triple mutants (S247W/C284W/S208W) construct; expressed in transfected cells; host or cells: HepG2
T2 sequence (O75469 146-433 S208W/S247W/C284W limits assumed): T1 sequence (O75469 146-433 limits assumed) with S63W, S102W, C139W
From the text: as §1

eGFP-tagged PXR = target: T3, eGFP-tagged PXR (Homo sapiens, UniProt O75469+Q96SW2); assay: Fluorescence (eGFP) intensity assay in COS-1 cells; format: cell-based; settings: 24 h
T3 construct: host or cells: COS-1
T3 sequence (O75469 whole entry): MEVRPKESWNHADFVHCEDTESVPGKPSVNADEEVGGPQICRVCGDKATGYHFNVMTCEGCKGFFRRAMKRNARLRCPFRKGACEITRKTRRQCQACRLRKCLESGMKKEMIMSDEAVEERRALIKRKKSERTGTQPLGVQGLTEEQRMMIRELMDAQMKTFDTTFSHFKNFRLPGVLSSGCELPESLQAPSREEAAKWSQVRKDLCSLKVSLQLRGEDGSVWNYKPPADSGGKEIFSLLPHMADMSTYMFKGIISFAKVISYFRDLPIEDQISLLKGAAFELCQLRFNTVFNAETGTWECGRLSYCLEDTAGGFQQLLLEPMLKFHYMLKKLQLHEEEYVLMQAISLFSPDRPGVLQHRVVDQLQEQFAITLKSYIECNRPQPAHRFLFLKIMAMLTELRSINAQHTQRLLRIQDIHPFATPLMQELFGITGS
T3 sequence (Q96SW2 whole entry): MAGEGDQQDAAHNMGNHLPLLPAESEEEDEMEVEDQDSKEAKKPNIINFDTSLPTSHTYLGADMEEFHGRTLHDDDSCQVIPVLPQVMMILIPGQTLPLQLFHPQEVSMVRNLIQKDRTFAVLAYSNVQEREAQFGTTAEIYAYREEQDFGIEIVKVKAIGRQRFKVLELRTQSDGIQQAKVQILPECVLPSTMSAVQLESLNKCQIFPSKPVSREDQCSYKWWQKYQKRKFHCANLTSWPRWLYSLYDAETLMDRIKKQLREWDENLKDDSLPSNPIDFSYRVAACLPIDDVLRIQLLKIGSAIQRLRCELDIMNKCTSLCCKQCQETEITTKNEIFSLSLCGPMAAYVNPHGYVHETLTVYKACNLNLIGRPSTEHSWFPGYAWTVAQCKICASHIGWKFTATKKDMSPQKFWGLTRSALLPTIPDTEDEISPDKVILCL
Experimental: COS-1 cells were transfected with 150 ng of PXR-eGFP (NR1I2_pcDNA3.1(+)-N-eGFP, GenScript Biotech) and 150 ng of CRBN (GenScript - CRBN_OHu21180D_pcDNA3.1+/C-(K)-DYK) in a 48-well plate using Lipofectamine 3000, following the manufacturer’s protocol. After 24 h, the transfected cells were treated with varying concentrations of the MI1013 compound and incubated for another 24 h. The eGFP fluorescence was then checked and imaged using the Invitrogen EVOS imaging system. Fluorescence intensity was measured using the Spark Multimode Microplate Reader (V2.2) in Fluorescence Intensity Scan Top Reading mode. The excitation wavelength was set between 440 and 500 nm, and the emission wavelength was set at 545 nm (Monochromator), with a gain of 100 and an integration time of 40 μs. Graphs were generated using GraphPad Prism.

SULT1E1, SULT1B1, CYP7B1 and NR0B2 (SHP) gene expression (HepaRG cells; MI891 5 μM, MI1013 2 μM) | CYP2B6 mRNA expression (HepaRG cells; at 1 μM, no significant activation at higher concentrations) | CYP3A4 gene expression (HepaRG cells; MI891 5 μM, SPA70 5 μM, MI1013 2 μM) | Molecule | effect on wt-PXR-LBD/SRC1-VP16 two-hybrid (wild-type PXR LBD) | effect on viability (COS-1 cells; COS-1, up to 30 μM) | effect on viability (HK-2 cells; HK-2, up to 30 μM) | CYP3A4 mRNA expression (HepaRG cells; alone or with rifampicin (5 μM), concentration-dependent) | effect on viability (HepG2 cells; HepG2, up to 30 μM) | activation of obstructed mutated PXR LBD two-hybrid [1] | cytotoxicity/viability (COS-1 cells; COS-1, up to a concentration of 100 μM) | cytotoxicity/viability (HK-2 cells; HK-2, up to a concentration of 100 μM) | cytotoxicity/viability (HepG2 cells; HepG2, up to a concentration of 100 μM) | degradation of eGFP-tagged PXR (loss of fluorescence) (eGFP-tagged PXR)
significantly downregulated | slightly induced |  | NC(=O)c1cc(Cn2cc(-c3c(-c4ccc(Cl)cc4)nc4c(F)cc(F)cn34)nn2)ccc1Cl [Compound 11, 2-Chloro-5-((4-(2-(4-chlorophenyl)-6,8-difluoroimidazo[1,2-a]pyridin-3-yl)-1H-1,2,3-triazol-1-yl)methyl)-benzamide] | disrupted the wt-PXR-LBD/SRC1-VP16 interaction | no effects on viability | no effects on viability | suppressed both rifampicin-induced and basal (constitutive) CYP3A4 mRNA expression | no effects on viability | Neither MI891 nor SPA70 activated the obstructed mutated PXR LBD |  |  |  | 
significantly downregulated |  | downregulated | N-(4-((1-(2,5-dimethoxyphenyl)-5-methyl-1H-1,2,3-triazol-4-yl)sulfonyl)phenyl)-3-(2-(2-(2-(4-(((2-(2,6-dioxopiperidin-3-yl)-1,3-dioxoisoindolin-4-yl)amino)methyl)-1H-1,2,3-triazol-1-yl)ethoxy)ethoxy)ethoxy)propenamide [Compound 36] | does not activate |  |  |  |  | does not activate | nontoxic | nontoxic | nontoxic | dose-dependent degradation of eGFP-tagged PXR
